According to patent publication US20040265357A1, “Combination of liponic acid and glutamine in food and pharmaceutical products” (priority 2001, published 2004):
Where two headings read alike, the source gives them in different places.

What was measured:
[1] = tested on: experimentally induced cerebral ischemia; conditions: cited from earlier work
experimental rat model = conditions: cited from earlier work; for effectiveness against buthionine sulfoximine-induced cataract: comparison of enantiomers and racemate
rats = conditions: oral administration; cited from earlier work
mice = conditions: oral administration; cited from earlier work
Human Jurkat T cells = assay: Increase in intracellular glutathione levels, Jurkat T cells (GSH by HPLC); assay type: cell-based
Procedure: (§1) Human Jurkat T cells and U937 cells, a human myelomonocyclic cell line, were used for the experiments. Jurkat and U937 cells were cultivated in RPMI 1640 medium (Bio Whittaker, Belgium)—supplemented with 10% heat-inactivated fetal calf serum (FCS; Linaris, Germany), 1% penicillin/streptomycin (Life Technologies, Scotland) and 2 mM L-glutamine (Sigma, Mont.)—under standard conditions (95% humidity, 5% CO2 and 37° C.). After harvesting, the cells were washed 2× with PBS, resuspended in standard medium (RPMI 1640 with 10% FCS, 1% streptomycin/penicillin, without L-glutamine) in a concentration of 2×10^5 cells/ml and transferred into […] culture bottles. The cells were treated with and without addition of 2 mM glutamine and in each case with or without 100 μM α-lipoic acid over a period of 4, 8, 24 or 48 h. After the respective treatment period had elapsed, the cells were harvested and washed 2× with PBS. 2×10^6 cells were resuspended in sulfosalicylic acid (6.5% in distilled water; Marck, Germany) and incubated on ice for 15 min. The supernatant after pelleting of the cells (5 000 g, 10 min) was aspirated off and stored at −20° C. until glutathione was determined by HPLC.

[2] = tested on: U937 cells, a human myelomonocyclic cell line; assay: Increase in intracellular glutathione levels, U937 cells (GSH by HPLC); assay type: cell-based
Procedure: as §1

aged mice = conditions: cited from earlier work
diabetes patients = conditions: daily 600 mg for more than 3 months; cited from earlier work
mice 6-8 weeks old = conditions: mice on vitamin E-deficient diet; 1.65 g/kg of body weight; cited from earlier work
[3] = 0.05 mM glutamine added to culture medium
[4] = 2 mM glutamine added to culture medium

## O=C(O)CCCC[C@@H](S)CCS (racemic) [dihydrolipoic acid]
[1]; 50 and 100 mg/kg body weight
  infarct size: reduction in the infarct size

## O=C(O)CCCCC1CCSS1 (racemic) [racemic mixture]
Experimental rat model
  effectiveness against buthionine sulfoximine-induced cataract: effective

## O=C(O)CCCC[C@H]1CCSS1 (single isomer, unassigned) [S enantiomer]
Experimental rat model
  effectiveness against buthionine sulfoximine-induced cataract: effective

## O=C(O)CCCC[C@@H]1CCSS1 [(R)-α-lipoic acid, (R)-5-(1,2-dithiolan-3-yl) valeric acid]
rats
  mitochondrial function: improvement in mitochondrial function
Experimental rat model
  effectiveness against buthionine sulfoximine-induced cataract: effective

## NC(=O)CCC(N)C(=O)O (stereo not drawn) [glutamine, 2-aminopentanoic acid 5-amide]
mice
  number of lymphocytes in Peyer's patches: increased number of lymphocytes
Human Jurkat T cells; [3]
  concentration of reduced glutathione (GSH): no significant change
Human Jurkat T cells; [4]
  concentration of reduced glutathione (GSH): significant increases
[2]; [3]
  concentration of reduced glutathione (GSH): no significant change
[2]; [4]
  concentration of reduced glutathione (GSH): significant increases

## O=C(O)CCCCC1CCSS1 (stereo not drawn) [lipoic acid, 5-(1,2-dithiolan-3-yl)valeric acid]
Aged mice
  long-term memory: improve the long-term memory
Diabetes patients
  oxidative stress: reduction in oxidative stress
Experimental rat model; rat model, subcutaneous injection 25 mg/kg body weight twice
  cataract induced by buthionine sulfoximine: significant reduction
Mice 6-8 weeks old
  symptoms of vitamin E deficiency phenomena (muscular dystrophy, weight loss): prevents the symptoms
[1]; iv, 25 mg/kg body weight
  infarct size: reduction in the infarct size
